The record followed here is patent US10544120B2, “Biaryl kinase inhibitors” (BRISTOL-MYERS SQUIBB COMPANY, priority 2015, dated 2020).

The experiment addresses GST-Xa-hAAK1 (Homo sapiens (Human), UniProt Q2M2I8). As to the kind of experiment: AAK1 Kinase Assay. The experiment is classed as biochemical. The conditions noted are these: bacterially expressed GST-Xa-hAAK1 3.5 nM; ATP 22 μM; fluoresceinated peptide 1.5 μM; 3 hours at room temperature; Caliper LabChip 3000. The method, then:
The assays were performed in U-bottom 384-well plates. […] The reactions were initiated by the combination of bacterially expressed, GST-Xa-hAAK1 with substrates and test compounds. The reactions were incubated at room temperature for 3 hours and terminated by adding 60 μl of 35 mM EDTA buffer to each sample. The reactions were analyzed on the Caliper LabChip 3000 (Caliper, Hopkinton, Mass.) by electrophoretic separation of the fluorescent substrate and phosphorylated product. […] Compounds were dissolved at 10 mM in dimethylsulfoxide (DMSO) and evaluated at eleven concentrations. IC50 values were derived by non-linear regression analysis.

Sequence of GST-Xa-hAAK1 (Q2M2I8 whole entry): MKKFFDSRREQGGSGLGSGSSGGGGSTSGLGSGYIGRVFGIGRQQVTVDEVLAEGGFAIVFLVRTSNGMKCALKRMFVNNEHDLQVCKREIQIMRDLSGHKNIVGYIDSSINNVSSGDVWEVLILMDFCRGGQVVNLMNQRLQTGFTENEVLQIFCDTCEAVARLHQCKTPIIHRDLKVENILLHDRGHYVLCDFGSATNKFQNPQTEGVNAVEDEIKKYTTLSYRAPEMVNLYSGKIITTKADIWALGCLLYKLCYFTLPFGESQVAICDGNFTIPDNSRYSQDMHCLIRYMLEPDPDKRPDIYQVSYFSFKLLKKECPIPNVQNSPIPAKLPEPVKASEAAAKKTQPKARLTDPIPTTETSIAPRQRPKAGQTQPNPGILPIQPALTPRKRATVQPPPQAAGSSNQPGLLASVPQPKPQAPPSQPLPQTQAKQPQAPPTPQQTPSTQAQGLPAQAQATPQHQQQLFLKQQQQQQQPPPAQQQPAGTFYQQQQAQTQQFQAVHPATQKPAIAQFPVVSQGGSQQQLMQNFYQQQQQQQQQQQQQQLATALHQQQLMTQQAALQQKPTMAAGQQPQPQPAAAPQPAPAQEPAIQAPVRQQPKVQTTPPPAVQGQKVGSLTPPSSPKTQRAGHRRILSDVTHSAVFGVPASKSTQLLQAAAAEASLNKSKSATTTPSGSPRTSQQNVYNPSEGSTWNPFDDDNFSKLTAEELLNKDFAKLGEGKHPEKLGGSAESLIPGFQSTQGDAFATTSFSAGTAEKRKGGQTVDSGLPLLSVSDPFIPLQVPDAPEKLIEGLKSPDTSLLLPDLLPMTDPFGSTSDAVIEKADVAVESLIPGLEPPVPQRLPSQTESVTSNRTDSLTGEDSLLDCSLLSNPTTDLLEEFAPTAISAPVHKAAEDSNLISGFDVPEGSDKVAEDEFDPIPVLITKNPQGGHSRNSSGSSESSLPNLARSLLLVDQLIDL

The IC50 is the concentration needed to halve the response being measured. Regarding `Cc1cc(-c2ccnc(Cl)n2)ccc1OC[C@@](C)(N)CC(C)C` [Example 367, (S)-1-(4-(2-chloropyrimidin-4-yl)-2-methylphenoxy)-2,4-dimethylpentan-2-amine], the IC50 is 4.5 nM.

Turning to `COC(=O)Nc1nccc(-c2ccc(OC[C@@](C)(N)CC(C)C)c(F)c2)n1` [Example 310, (S)-methyl (4-(4-((2-amino-2,4-dimethylpentyl)oxy)-3-fluorophenyl)pyrimidin-2-yl)carbamate], the IC50 turned out to be 9.1 nM.

Consider `Cc1cc(-c2cc(F)c(OC[C@@](C)(N)CC(C)C)cc2F)ncn1` [Example 435, (S)-1-(2,5-difluoro-4-(6-methylpyrimidin-4-yl)phenoxy)-2,4-dimethylpentan-2-amine], for which the half-maximal inhibitory concentration (IC50) was 63 nM.

`Cc1nccc(-c2ccc(OC[C@@](C)(N)CC(C)C)c(CF)c2)n1` [Example 352, (S)-1-(2-(fluoromethyl)-4-(2-methylpyrimidin-4-yl)phenoxy)-2,4-dimethylpentan-2-amine]: the half-inhibitory concentration (IC50) was found to be 1.4 nM.

Take `COC(=O)Nc1nccc(-c2cnc(OC[C@@](C)(N)CC(C)C)c(C)c2)n1` [Example 379, (S)-methyl (4-(6-((2-amino-2,4-dimethylpentyl)oxy)-5-methylpyridin-3-yl)pyrimidin-2-yl)carbamate]: the IC50 was found to be 35 nM.

Regarding `COC(=O)Nc1cc(-c2ccc(OC[C@@](C)(N)CC(C)C)c(C#N)c2)cnn1` [Example 300, (S)-methyl (5-(4-((2-amino-2,4-dimethylpentyl)oxy)-3-cyanophenyl)pyridazin-3-yl)carbamate], the IC50 amounted to 246 nM.

For the compound `CC(C)C[C@](C)(N)COc1ccc(-c2ccnc(C(F)(F)F)n2)cc1Cl` [Example 465, (S)-1-(2-chloro-4-(2-(trifluoromethyl)pyrimidin-4-yl)phenoxy)-2,4-dimethylpentan-2-amine], the IC50 was 3.6 nM.

With `COC(=O)Nc1nccc(-c2cnc(OC[C@](C)(N)CC(C)C)c(F)c2)n1` [Example 373, (R)-methyl (4-(6-((2-amino-2,4-dimethylpentyl)oxy)-5-fluoropyridin-3-yl)pyrimidin-2-yl)carbamate], the IC50 was found to be 684 nM.

As to `COC(=O)Nc1cc(-c2ccc(OCC(N)(CC(C)C)C(F)(F)F)c(C)n2)ccn1` (centres unmarked) [Example 273, methyl 5-(2-amino-4-methyl-2-(trifluoromethyl)pentyloxy)-6-methyl-2,4′-bipyridin-2′-ylcarbamate], the IC50 amounted to 226 nM.

`COC(=O)Nc1cc(-c2ccc(OC[C@@](C)(N)CC(C)C)c(C)c2)ncn1` [Example 433, (S)-methyl (6-(4-((2-amino-2,4-dimethylpentyl)oxy)-3-methylphenyl)pyrimidin-4-yl)carbamate]: the IC50 amounted to 1.8 nM.

`CC(C)C[C@](C)(N)COc1ccc(-c2ccnc(C(F)(F)F)n2)cc1F` [Example 331, (S)-1-(2-fluoro-4-(2-(trifluoromethyl)pyrimidin-4-yl)phenoxy)-2,4-dimethylpentan-2-amine]: the IC50 worked out at 45 nM.

On to `Cc1nccc(-c2cc(F)c(OC[C@@](C)(N)CC(C)C)cc2F)n1` [Example 506, (S)-1-(2,5-difluoro-4-(2-methylpyrimidin-4-yl)phenoxy)-2,4-dimethylpentan-2-amine], for which the IC50 is 134 nM.

In the case of `COC(=O)Nc1nccc(-c2ccc(OC[C@@](C)(N)CC(C)C)c(C(F)(F)F)c2)n1` [Example 306, (S)-methyl(4-(4-((2-amino-2,4-dimethylpentyl)oxy)-3-(trifluoromethyl)phenyl)pyrimidin-2-yl)carbamate], the IC50 worked out at 0.6 nM.

On to `CC(C)C[C@](C)(N)COc1ccc(-c2ccnc(C(F)(F)F)n2)cc1C#N` [Example 474, (S)-2-(2-amino-2,4-dimethylpentyloxy)-5-(2-(trifluoromethyl)pyrimidin-4-yl)benzonitrile], for which the half-maximal inhibitory concentration (IC50) worked out at 6.6 nM.

Consider `Cc1nccc(-c2ccc(OCC(N)(CC(C)C)C(F)(F)F)c(C)n2)n1` (centres unmarked) [Example 491, 1,1,1-trifluoro-4-methyl-2-(((2-methyl-6-(2-methylpyrimidin-4-yl)pyridin-3-yl)oxy)methyl)pentan-2-amine], for which the concentration for half-maximal inhibition (IC50) came out at 789 nM.

Consider `COC(=O)Nc1cc(-c2ccc(OC[C@@](C)(N)CC(C)C)c(C(F)(F)F)c2)ncn1` [Example 432, (S)-methyl (6-(4-((2-amino-2,4-dimethylpentyl)oxy)-3-(trifluoromethyl)phenyl)pyrimidin-4-yl)carbamate], for which the IC50 is 0.7 nM.

`CC(C)C[C@](C)(N)COc1ccc(-c2ccnc(O)n2)cc1C(F)(F)F` [Example 317, (S)-4-(4-((2-amino-2,4-dimethylpentyl)oxy)-3 (trifluoromethyl)phenyl)pyrimidin-2-ol]: the IC50 came out at 103 nM.

As for `CC(C)C[C@](C)(N)COc1ccc(-c2ccnc(NC(=O)OC(C)C)n2)cc1C(F)(F)F` [Example 311, (S)-isopropyl (4-(4-((2-amino-2,4-dimethylpentyl)oxy)-3-(trifluoromethyl)phenyl)pyrimidin-2-yl)carbamate], the IC50 is 3.9 nM.

With `CC(C)C[C@](C)(N)COc1ccc(-c2ccnc(CF)c2)nc1C(F)F` [Example 355, (S)-1-((6-(difluoromethyl)-2′-(fluoromethyl)-[2,4′-bipyridin]-5-yl)oxy)-2,4-dimethylpentan-2-amine], the IC50 is 1.1 nM.

As to `Cc1cc(-c2ccnc(F)c2)ncc1OC[C@@](C)(N)CC(C)C` [Example 344, (S)-1-((2′-fluoro-4-methyl-[2,4′-bipyridin]-5-yl)oxy)-2,4-dimethylpentan-2-amine], the concentration for half-maximal inhibition (IC50) was found to be 26 nM.

Take `Cc1nc(-c2ccnc(C(F)(F)F)c2)ccc1OC[C@@](C)(N)CC(C)C` [Example 348, (S)-2,4-dimethyl-1-((6-methyl-2′-(trifluoromethyl)-[2,4′-bipyridin]-5-yl)oxy)pentan-2-amine]: the IC50 turned out to be 512 nM.

For the compound `Cc1cc(-c2ccc(OC[C@@](C)(N)CC(C)C)c(C(F)F)c2)ncn1` [Example 350, (S)-1-(2-(difluoromethyl)-4-(6-methylpyrimidin-4-yl)phenoxy)-2,4-dimethylpentan-2-amine], the IC50 is 39 nM.

With `COC(=O)Nc1nccc(-c2cnc(OC[C@](C)(N)CC(C)C)c(Cl)c2)n1` [Example 304, (R)-methyl(4-(6-((2-amino-2,4-dimethylpentyl)oxy)-5-chloropyridin-3-yl)pyrimidin-2-yl)carbamate], the half-maximal inhibitory concentration (IC50) came out at 298 nM.

Turning to `Cc1nccc(-c2ccc(OC[C@@](C)(N)CC(C)C)c(C#N)c2)n1` [Example 458, (S)-2-(2-amino-2,4-dimethylpentyloxy)-5-(2-methylpyrimidin-4-yl) benzonitrile], the half-maximal inhibitory concentration (IC50) is 1.5 nM.

Regarding `COC(=O)Nc1nccc(-c2ccc(OC[C@@](C)(N)CC(C)C)c(C(F)F)n2)n1` [Example 323, (S)-methyl (4-(5-((2-amino-2,4-dimethylpentyl)oxy)-6-(difluoromethyl)pyridin-2-yl)pyrimidin-2-yl)carbamate], the IC50 worked out at 0.8 nM.

Turning to `Cc1cc(-c2cc(C(F)F)c(OC[C@@](C)(N)CC(C)C)cn2)ncn1` [Example 318, (S)-1-((4-(difluoromethyl)-6-(6-methylpyrimidin-4-yl)pyridin-3-yl)oxy)-2,4-dimethylpentan-2-amine], the IC50 was found to be 9.7 nM.

As to `Cc1cc(-c2ccc(OC[C@@](C)(N)CC(C)C)c(C)c2)ncn1` [Example 384, (S)-2,4-dimethyl-1-(2-methyl-4-(6-methylpyrimidin-4-yl)phenoxy)pentan-2-amine], the half-maximal inhibitory concentration (IC50) was determined as 46 nM.

For `CC(C)C[C@](C)(N)COc1ccc(-c2ccnc(C(F)(F)F)c2)nc1C(F)F` [Example 356, (S)-1-((6-(difluoromethyl)-2′-(trifluoromethyl)-[2,4′-bipyridin]-5-yl)oxy)-2,4-dimethylpentan-2-amine], the IC50 was found to be 82 nM.

With `COC(=O)Nc1nccc(-c2cnc(OC[C@](C)(N)CC(C)C)c(C)c2)n1` [Example 372, (R)-methyl (4-(6-((2-amino-2,4-dimethylpentyl)oxy)-5-methylpyridin-3-yl)pyrimidin-2-yl)carbamate], the 50% inhibitory concentration (IC50) turned out to be 236 nM.

For the compound `CC(C)C[C@](C)(N)COc1ccc(-c2ccnc(Cl)n2)cc1C#N` [Example 378, (S)-2-((2-amino-2,4-dimethylpentyl)oxy)-5-(2-chloropyrimidin-4-yl)benzonitrile], the IC50 was determined as 1.4 nM.

Consider `Cc1nccc(-c2cnc(OC[C@@](C)(N)CC(C)C)c(-c3cnco3)c2)n1` [Example 298, (S)-2,4-dimethyl-1-((5-(2-methylpyrimidin-4-yl)-3-(oxazol-5-yl)pyridin-2-yl)oxy)pentan-2-amine], for which the half-maximal inhibitory concentration (IC50) was 45 nM.

For `COC(=O)Nc1nccc(-c2ccc(OC[C@@](C)(N)CC(C)C)c(CF)n2)n1` [Example 388, (S)-methyl (4-(5-((2-amino-2,4-dimethylpentyl)oxy)-6-(fluoromethyl)pyridin-2-yl)pyrimidin-2-yl)carbamate], the half-inhibitory concentration (IC50) was found to be 4.7 nM.

Turning to `COC(=O)Nc1nccc(-c2ccc(OC[C@@](C)(N)CC(C)C)cc2)n1` [Example 505, (S)-methyl (4-(4-((2-amino-2,4-dimethylpentyl)oxy)phenyl)pyrimidin-2-yl)carbamate], the IC50 was 8.7 nM.

Consider `COC(=O)Nc1nccc(-c2ccc(OC[C@@](C)(N)CC(C)C)c(Cl)c2)n1` [Example 307, (S)-methyl (4-(4-((2-amino-2,4-dimethylpentyl)oxy)-3-chlorophenyl)pyrimidin-2-yl)carbamate], for which the IC50 is 0.9 nM.

With `CC(C)C[C@](C)(N)COc1ccc(-c2ccnc(N)c2)cc1C(F)(F)F` [Example 297, (S)-4-(4-((2-amino-2,4-dimethylpentyl)oxy)-3-(trifluoromethyl)phenyl)pyridin-2-amine], the IC50 came to 0.3 nM.
